# Measured values published in patent publication US6518317B1, “Antiviral agents” (priority 1997, dated 2003).
# Legend:
# [1] = Single oral administration toxicity in rats; type: in vivo; settings: single oral administration of 100 mg/kg
# [2] = system: 70 kd heat shock proteins; test: Expression of 70 kd heat shock proteins in HeLa cells (SDS-PAGE and blotting); type: cell-based; set-up: key: +++: the sign “+” shows the potency of signals of the 70 kd heat shock proteins observed in the blotting the more the numbers of +, the more potent the signals; ++: the sign “+” shows the potency of signals of the 70 kd heat shock proteins observed in the blotting the more the numbers of +, the more potent the signals; the sign “+” shows the potency of signals of the 70 kd heat shock proteins observed in the blotting the more the numbers of +, the more potent the signals; The sign “±” means that the signal was very weak; settings: six hours
# Experimental: The medium was discarded, 1 ml of 10% trichloroacetic acid was added to each of the wells and the cells were recovered by a scraper.
# The cells prepared as such were subjected to an SDS-PAGE and a blotting according to a method of Example 1 to detect the expression of 70 kd heat shock proteins.
# As a result, induction of the 70 kd heat shock proteins noted in the sections to which the cyclopentenone of from 5 μM to 40 μM was added. […] The sign “±” means that the signal was very weak.
# [3] = Anti-inflammatory test of TPA in conchae of mice; type: in vivo; settings: 2.5 mg (per mouse) applied to concha of the mouse
# NIH3T3/E7-2 = test: Colony formation of HPV16 type E7-transformed cell strain NIH3T3/E7-2; type: cell-based; settings: 5 μM
# Experimental: Each incubation was conducted in three runs.
# HIV-1IIIB [4] = test: p24 antigen in supernatant liquid of H9-3B culture; type: cell-based; settings: three days
# Experimental: (§1) The cyclopentenone (1-5 μM) was added to CEM-SS cells infected by HIV-1IIIB (abbreviated as CEM-3B) or to H9 cells infected by HIV-1IIIB (abbreviated as H9-3B) and incubated for three days. In both cells, 90% or more of the cells were infected by HIV-1IIIB. Numbers of living and dead cells were counted and the survival rate of the cells was calculated therefrom.
# (§2) Concentration of the p24 antigen contained in the supernatant liquid of the culture after incubation for three days in the case of Example 5-(2) was measured. The result was that the concentration of p24 decreased corresponding to the centration of the cyclopentenone added thereto whereupon the anti-HIV action was noted. In Table 10, the figures in parentheses are the ratio of each of the supernatant liquid of the cell cultures (when none of the cyclopentenone was added) to the concentration of p24 expressed in terms of %.
# Ad5 dlX [an adenovirus] = test: Adenovirus hexon protein in HeLa cells treated with cyclopentenone before infection; type: cell-based; settings: 10 μM or higher, six hours before infection, m.o.i. 50, 20 hours
# Experimental: After that, the cells were washed with the DMEM containing 5% of fetal bovine serum, then the DMEM containing 5% of fetal bovine serum which contained Ad5 dlX [an adenovirus; Saito, etal.; Journal ofVirology, volume 54, pages 711-719 (1985)] was added to the cells so that the cells were infected therewith and incubation was conducted for 20 hours. […] The medium was discarded, 1 ml of 10% trichloroacetic acid was added to each of the wells and the cells were recovered by a scraper.
# Then SDS-PAGE and blotting of the treated cells obtained hereinabove were conducted by the method of Example 1 to detect the expression of hexon proteins of the adenovirus. Incidentally, anti-adenovirus hexon antibody (AB 1056; manufactured by Chemicon International Inc.) was used as the primary antibody.
# H9 cells = test: Survival rate of human T cells, H9; type: cell-based; settings: three days
# HIV-1IIIB [5] = test: p24 antigen in supernatant liquid of CEM-3B culture; type: cell-based; settings: three days
# Experimental: as §1, §2
# [6] = system: adenovirus type 5 (Adenoid 75; ATCC VR-5); test: Amount of viral DNA in HeLa cells, cyclopentenone before and after infection; type: cell-based; settings: 5 μM or more
# Experimental: (6) Amount of the viral DNA was measured by the same manner as in Example 2-(3) from the HeLa cells which were treated with the cyclopentenone infected by the adenovirus type 5 (Adenoid 75; ATCC VR-5) followed by incubating by the same manner as in Example 2-(5).
# [7] = system: carcinogenesis caused by a two-stage carcinogenesis on skin; test: Two-stage (DMBA/TPA) carcinogenesis on skin of mice; type: in vivo, mice of ICR strain; settings: 2.5 mg per mouse
# Experimental: Hair on the back of mice of ICR strain (purchased from Nippon SLC; seven weeks age; female) was shaved and DMBA (dimethylbenzanthracene) as an initiator in a form of a solution in acetone was applied thereto at the dose of 50 μg/mouse.
# Thus, FIG. 5 is a graph showing the anti-carcinogenic action of the cyclopentenone in which ordinate is a carcinogenic rate while abscissa is time (weeks). In the graph, open triangles, black triangles and open circles stand for a group treated with 2.5 mg of the cyclopentenone per mouse (12 mice in total), a group treated with 0.8 mg of the cyclopentenone per mouse (11 mice in total) and a control group (12 mice in total), respectively.
# [8] = system: H9 cells infected by HIV-1IIIB (H9-3B); test: Survival rate of HIV-infected T cells, H9-3B; type: cell-based, human; settings: three days
# Experimental: as §1
# Thus, FIG. 3 and FIG. 4 are the graphs showing the relation between the concentration of the cyclopentenone added and the survival rate of the cells in which abscissa is the concentration (μM) of the cyclopentenone added While ordinate is the survival rate (%) of the cells after incubating for three days. FIG. 3 is the result when CEM-3B were used while FIG. 4 is the result when H9-3B were used.
# [9] = system: adenovirus of type 5 (Adenoid 75; ATCC VR-5); test: Adenovirus hexon protein in HeLa cells, cyclopentenone added after infection; type: cell-based; settings: 10 μM or more, 20 hours
# Experimental: (4) After HeLa cells were incubated by the same manner as in Example 2-(2), DMEM containing 5% of fetal bovine serum which contained adenovirus of type 5 (Adenoid 75; ATCC VR-5) was added to the cells without addition of the cyclopentenone whereby the cells were infected by that. […] After the incubation, detection of hexon proteins of adenovirus was conducted by the same manner as in Example 2-(2).
# NIH3T3 cells = test: Colony formation of NIH3T3 cells; settings: 5 μM, nine days, NIH3T3, three runs
smiles,measurement,setting,value
"O=C1C=CC(O)C1O (centres unmarked) [cyclopentenone, 4,5-dihydroxy-2-cyclopenten-1-one]",dead cases,[1],no dead case
same,Amount of 70 kd of Heat Shock Proteins,[2]; 5 μM,+
same,Amount of 70 kd of Heat Shock Proteins,[2]; 10 μM,++
same,Amount of 70 kd of Heat Shock Proteins,[2]; 20 μM,+++
same,Amount of 70 kd of Heat Shock Proteins,[2]; 40 μM,+++
same,anti-inflammatory activity,[3],no anti-inflammatory activity
same,sensitivity of the cells into which E7 was introduced compared with the control cells,NIH3T3/E7-2,high sensitivity
same,Numbers (average ± SD) of the Colonies,"NIH3T3/E7-2; nine days, NIH3T3/E7-2, three runs",22.3 ± 3.5
same,Concentration of p24 in Supernatant Liquid of the cell cultures,HIV-1IIIB [4]; 1 μM,203 ng/mL
same,ratio to the concentration of p24 when none of the cyclopentenone was added,HIV-1IIIB [4]; 1 μM,97%
same,Concentration of p24 in Supernatant Liquid of the cell cultures,HIV-1IIIB [4]; 3 μM,157 ng/mL
same,ratio to the concentration of p24 when none of the cyclopentenone was added,HIV-1IIIB [4]; 3 μM,75%
same,Concentration of p24 in Supernatant Liquid of the cell cultures,HIV-1IIIB [4]; 5 μM,148 ng/mL
same,ratio to the concentration of p24 when none of the cyclopentenone was added,HIV-1IIIB [4]; 5 μM,70%
same,amount of the hexon protein compared with the control,Ad5 dlX [an adenovirus],apparently decreased
same,survival rate of the cells,H9 cells,no significant decrease
same,Concentration of p24 in Supernatant Liquid of the cell cultures,HIV-1IIIB [5]; 1 μM,232 ng/mL
same,ratio to the concentration of p24 when none of the cyclopentenone was added,HIV-1IIIB [5]; 1 μM,83%
same,Concentration of p24 in Supernatant Liquid of the cell cultures,HIV-1IIIB [5]; 3 μM,176 ng/mL
same,ratio to the concentration of p24 when none of the cyclopentenone was added,HIV-1IIIB [5]; 3 μM,63%
same,Concentration of p24 in Supernatant Liquid of the cell cultures,HIV-1IIIB [5]; 5 μM,175 ng/mL
same,ratio to the concentration of p24 when none of the cyclopentenone was added,HIV-1IIIB [5]; 5 μM,63%
same,amount of the viral DNA compared with the control,[6],apparent decrease
same,carcinogenic rate,"[7]; applied one hour before each TPA, within 15 weeks (1 mouse out of 12)",8.3%
same,carcinogenic rate,[7]; within and after 19 weeks (3 mice out of 12),25%
same,survival rate of the cells,[8]; 3 μM,significantly decreased
same,survival rate of the cells,[8]; 5 μM,further decreased
same,amount of hexon proteins compared with the control,[9],apparent decrease
same,Numbers (average ± SD) of the Colonies,NIH3T3 cells,85.3 ± 4.0
